Data taken from paper PMC12454493, “Insight on novel sulfamoylphenyl pyrazole derivatives as anticancer carbonic anhydrase inhibitors” (Molecular Diversity, 2024).

What was measured:
ACHN = assay: NCI-60 one-dose SRB screen (Renal Cancer); type: cell-based; conditions: Homo sapiens, single dose 10 µM, 48 h, read-out: Growth inhibition percent (GI %)
CAKI-1 = assay: NCI-60 one-dose SRB screen (Renal Cancer); type: cell-based; conditions: Homo sapiens, single dose 10 µM, 48 h, read-out: Growth inhibition percent (GI %)
TK-10 = assay: NCI-60 one-dose SRB screen (Renal Cancer); type: cell-based; conditions: Homo sapiens, single dose 10 µM, 48 h, read-out: Growth inhibition percent (GI %)
RXF 393 = assay: NCI-60 one-dose SRB screen (Renal Cancer); type: cell-based; conditions: Homo sapiens, single dose 10 µM, 48 h, read-out: Growth inhibition percent (GI %)
786-0 = assay: NCI-60 one-dose SRB screen (Renal Cancer); type: cell-based; conditions: Homo sapiens, single dose 10 µM, 48 h, read-out: Growth inhibition percent (GI %)
A498 = assay: NCI-60 one-dose SRB screen (Renal Cancer); type: cell-based; conditions: Homo sapiens, single dose 10 µM, 48 h, read-out: Growth inhibition percent (GI %)
UO-31 = assay: NCI-60 one-dose SRB screen (Renal Cancer); type: cell-based; conditions: Homo sapiens, single dose 10 µM, 48 h, read-out: Growth inhibition percent (GI %)
OVCAR-5 = assay: NCI-60 one-dose SRB screen (Ovarian cancer); type: cell-based; conditions: Homo sapiens, single dose 10 µM, 48 h, read-out: Growth inhibition percent (GI %)
IGROV1 = assay: NCI-60 one-dose SRB screen (Ovarian cancer); type: cell-based; conditions: Homo sapiens, IGROV-1, single dose 10 µM, 48 h, read-out: Growth inhibition percent (GI %)
OVCAR-8 = assay: NCI-60 one-dose SRB screen (Ovarian cancer); type: cell-based; conditions: Homo sapiens, single dose 10 µM, 48 h, read-out: Growth inhibition percent (GI %)
OVCAR-4 = assay: NCI-60 one-dose SRB screen (Ovarian cancer); type: cell-based; conditions: Homo sapiens, single dose 10 µM, 48 h, read-out: Growth inhibition percent (GI %)
SK-OV-3 = assay: NCI-60 one-dose SRB screen (Ovarian cancer); type: cell-based; conditions: Homo sapiens, single dose 10 µM, 48 h, read-out: Growth inhibition percent (GI %)
NCI/ADR-RES = assay: NCI-60 one-dose SRB screen (Ovarian cancer); type: cell-based; conditions: Homo sapiens, single dose 10 µM, 48 h, read-out: Growth inhibition percent (GI %)
OVCAR-3 = assay: NCI-60 one-dose SRB screen (Ovarian cancer); type: cell-based; conditions: Homo sapiens, single dose 10 µM, 48 h, read-out: Growth inhibition percent (GI %)
hCA XII = hCA XII (Homo sapiens, UniProt O43570); assay: CA inhibitory activity, spectrophotometric p-NPA assay; type: biochemical; conditions: p-NPA substrate, pH 7.5, 25 °C, triplicate; read-out: IC50 (µM) ± SD hCA XII
DU-145 = assay: NCI-60 one-dose SRB screen (Prostate Cancer); type: cell-based; conditions: Homo sapiens, single dose 10 µM, 48 h, read-out: Growth inhibition percent (GI %)
PC-3 = assay: NCI-60 one-dose SRB screen (Prostate Cancer); type: cell-based; conditions: Homo sapiens, single dose 10 µM, 48 h, read-out: Growth inhibition percent (GI %)
MOLT-4 = assay: NCI-60 one-dose SRB screen (Leukemia); type: cell-based; conditions: Homo sapiens, single dose 10 µM, 48 h, read-out: Growth inhibition percent (GI %)
CCRF-CEM = assay: NCI-60 one-dose SRB screen (Leukemia); type: cell-based; conditions: Homo sapiens, single dose 10 µM, 48 h, read-out: Growth inhibition percent (GI %)
HL-60(TB) = assay: NCI-60 one-dose SRB screen (Leukemia); type: cell-based; conditions: Homo sapiens, single dose 10 µM, 48 h, read-out: Growth inhibition percent (GI %)
K-562 = assay: NCI-60 one-dose SRB screen (Leukemia); type: cell-based; conditions: Homo sapiens, K562, single dose 10 µM, 48 h, read-out: Growth inhibition percent (GI %)
RPMI-8226 = assay: NCI-60 one-dose SRB screen (Leukemia); type: cell-based; conditions: Homo sapiens, single dose 10 µM, 48 h, read-out: Growth inhibition percent (GI %)
SR = assay: NCI-60 one-dose SRB screen (Leukemia); type: cell-based; conditions: Homo sapiens, single dose 10 µM, 48 h, read-out: Growth inhibition percent (GI %)
SF-539 = assay: NCI-60 one-dose SRB screen (CNS Cancer); type: cell-based; conditions: Homo sapiens, single dose 10 µM, 48 h, read-out: Growth inhibition percent (GI %)
SNB-19 = assay: NCI-60 one-dose SRB screen (CNS Cancer); type: cell-based; conditions: Homo sapiens, single dose 10 µM, 48 h, read-out: Growth inhibition percent (GI %)
SF-268 = assay: NCI-60 one-dose SRB screen (CNS Cancer); type: cell-based; conditions: Homo sapiens, single dose 10 µM, 48 h, read-out: Growth inhibition percent (GI %)
SF-295 = assay: NCI-60 one-dose SRB screen (CNS Cancer); type: cell-based; conditions: Homo sapiens, single dose 10 µM, 48 h, read-out: Growth inhibition percent (GI %)
U251 = assay: NCI-60 one-dose SRB screen (CNS Cancer); type: cell-based; conditions: Homo sapiens, U-251, single dose 10 µM, 48 h, read-out: Growth inhibition percent (GI %)
SNB-75 = assay: NCI-60 one-dose SRB screen (CNS Cancer); type: cell-based; conditions: Homo sapiens, single dose 10 µM, 48 h, read-out: Growth inhibition percent (GI %)
LOX IMVI = assay: NCI-60 one-dose SRB screen (Melanoma); type: cell-based; conditions: Homo sapiens, single dose 10 µM, 48 h, read-out: Growth inhibition percent (GI %)
MALME-3M = assay: NCI-60 one-dose SRB screen (Melanoma); type: cell-based; conditions: Homo sapiens, single dose 10 µM, 48 h, read-out: Growth inhibition percent (GI %)
SK-MEL-28 = assay: NCI-60 one-dose SRB screen (Melanoma); type: cell-based; conditions: Homo sapiens, single dose 10 µM, 48 h, read-out: Growth inhibition percent (GI %)
UACC-257 = assay: NCI-60 one-dose SRB screen (Melanoma); type: cell-based; conditions: Homo sapiens, single dose 10 µM, 48 h, read-out: Growth inhibition percent (GI %)
UACC-62 = assay: NCI-60 one-dose SRB screen (Melanoma); type: cell-based; conditions: Homo sapiens, single dose 10 µM, 48 h, read-out: Growth inhibition percent (GI %)
MDA-MB-435 = assay: NCI-60 one-dose SRB screen (Melanoma); type: cell-based; conditions: Homo sapiens, single dose 10 µM, 48 h, read-out: Growth inhibition percent (GI %)
SK-MEL-5 = assay: NCI-60 one-dose SRB screen (Melanoma); type: cell-based; conditions: Homo sapiens, single dose 10 µM, 48 h, read-out: Growth inhibition percent (GI %)
SK-MEL-2 = assay: NCI-60 one-dose SRB screen (Melanoma); type: cell-based; conditions: Homo sapiens, single dose 10 µM, 48 h, read-out: Growth inhibition percent (GI %)
M14 = assay: NCI-60 one-dose SRB screen (Melanoma); type: cell-based; conditions: Homo sapiens, single dose 10 µM, 48 h, read-out: Growth inhibition percent (GI %)
T-47D = assay: NCI-60 one-dose SRB screen (Breast Cancer); type: cell-based; conditions: Homo sapiens, T47D, single dose 10 µM, 48 h, read-out: Growth inhibition percent (GI %)
MDA-MB-231/ATCC = assay: NCI-60 one-dose SRB screen (Breast Cancer); type: cell-based; conditions: Homo sapiens, single dose 10 µM, 48 h, read-out: Growth inhibition percent (GI %)
MDA-MB-468 = assay: NCI-60 one-dose SRB screen (Breast Cancer); type: cell-based; conditions: Homo sapiens, single dose 10 µM, 48 h, read-out: Growth inhibition percent (GI %)
MCF-7 = assay: NCI-60 one-dose SRB screen (Breast Cancer); type: cell-based; conditions: Homo sapiens, MCF7, single dose 10 µM, 48 h, read-out: Growth inhibition percent (GI %)
BT-549 = assay: NCI-60 one-dose SRB screen (Breast Cancer); type: cell-based; conditions: Homo sapiens, single dose 10 µM, 48 h, read-out: Growth inhibition percent (GI %)
HS 578T = assay: NCI-60 one-dose SRB screen (Breast Cancer); type: cell-based; conditions: Homo sapiens, single dose 10 µM, 48 h, read-out: Growth inhibition percent (GI %)
A549/ATCC = assay: NCI-60 one-dose SRB screen (Non-Small Cell Lung Cancer); type: cell-based; conditions: Homo sapiens, single dose 10 µM, 48 h, read-out: Growth inhibition percent (GI %)
NCI-H226 = assay: as above; type: cell-based; conditions: Homo sapiens, single dose 10 µM, 48 h, read-out: Growth inhibition percent (GI %)
NCI-H322M = assay: as above; type: cell-based; conditions: Homo sapiens, single dose 10 µM, 48 h, read-out: Growth inhibition percent (GI %)
NCI-H522 = assay: as above; type: cell-based; conditions: Homo sapiens, single dose 10 µM, 48 h, read-out: Growth inhibition percent (GI %)
HOP-62 = assay: as above; type: cell-based; conditions: Homo sapiens, single dose 10 µM, 48 h, read-out: Growth inhibition percent (GI %)
HOP-92 = assay: as above; type: cell-based; conditions: Homo sapiens, single dose 10 µM, 48 h, read-out: Growth inhibition percent (GI %)
EKVX = assay: as above; type: cell-based; conditions: Homo sapiens, single dose 10 µM, 48 h, read-out: Growth inhibition percent (GI %)
NCI-H460 = assay: as above; type: cell-based; conditions: Homo sapiens, single dose 10 µM, 48 h, read-out: Growth inhibition percent (GI %)
NCI-H23 = assay: as above; type: cell-based; conditions: Homo sapiens, single dose 10 µM, 48 h, read-out: Growth inhibition percent (GI %)
COLO 205 = assay: NCI-60 one-dose SRB screen (Colon Cancer); type: cell-based; conditions: Homo sapiens, single dose 10 µM, 48 h, read-out: Growth inhibition percent (GI %)
KM12 = assay: NCI-60 one-dose SRB screen (Colon Cancer); type: cell-based; conditions: Homo sapiens, single dose 10 µM, 48 h, read-out: Growth inhibition percent (GI %)
SW-620 = assay: NCI-60 one-dose SRB screen (Colon Cancer); type: cell-based; conditions: Homo sapiens, single dose 10 µM, 48 h, read-out: Growth inhibition percent (GI %)
HCC-2998 = assay: NCI-60 one-dose SRB screen (Colon Cancer); type: cell-based; conditions: Homo sapiens, single dose 10 µM, 48 h, read-out: Growth inhibition percent (GI %)
HT29 = assay: NCI-60 one-dose SRB screen (Colon Cancer); type: cell-based; conditions: Homo sapiens, HT-29, single dose 10 µM, 48 h, read-out: Growth inhibition percent (GI %)
HCT-15 = assay: NCI-60 one-dose SRB screen (Colon Cancer); type: cell-based; conditions: Homo sapiens, single dose 10 µM, 48 h, read-out: Growth inhibition percent (GI %)
HCT-116 = assay: NCI-60 one-dose SRB screen (Colon Cancer); type: cell-based; conditions: Homo sapiens, single dose 10 µM, 48 h, read-out: Growth inhibition percent (GI %)

hCA XII, sequence (O43570 25-354): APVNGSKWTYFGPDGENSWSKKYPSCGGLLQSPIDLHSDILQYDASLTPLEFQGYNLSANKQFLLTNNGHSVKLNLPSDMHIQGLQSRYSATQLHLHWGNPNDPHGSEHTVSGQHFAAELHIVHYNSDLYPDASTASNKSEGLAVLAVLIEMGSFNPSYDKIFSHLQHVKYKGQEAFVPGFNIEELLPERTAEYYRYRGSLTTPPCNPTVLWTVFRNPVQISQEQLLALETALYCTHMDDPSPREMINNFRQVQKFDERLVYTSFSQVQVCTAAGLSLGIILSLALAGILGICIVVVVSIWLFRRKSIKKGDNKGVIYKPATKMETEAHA

COc1ccc(-c2nn(-c3ccc(S(N)(=O)=O)cc3)cc2C(=O)NNC(N)=S)cc1 [Compound 9c, 2-[3-(4-Methoxyphenyl)-1-(4-sulfamoylphenyl)-1H-pyrazole-4-carbonyl] hydrazine-1-carbothioamide]
inhibition at 10 µM (ACHN): < 5%
inhibition at 10 µM (CAKI-1): < 5%
inhibition at 10 µM (TK-10): < 5%
inhibition at 10 µM (RXF 393): < 5%
inhibition at 10 µM (786-0): < 5%
inhibition at 10 µM (A498): < 5%
inhibition at 10 µM (UO-31): < 5%
melting point: 205 to 207 °C
inhibition at 10 µM (OVCAR-5): < 5%
inhibition at 10 µM (IGROV1): < 5%
inhibition at 10 µM (OVCAR-8): < 5%
inhibition at 10 µM (OVCAR-4): < 5%
inhibition at 10 µM (SK-OV-3): < 5%
inhibition at 10 µM (NCI/ADR-RES): < 5%
inhibition at 10 µM (OVCAR-3): < 5%
IC50 (hCA XII): 0.168 ± 0.006 µM
inhibition at 10 µM (DU-145): < 5%
inhibition at 10 µM (PC-3): < 5%
inhibition at 10 µM (MOLT-4): < 5%
inhibition at 10 µM (CCRF-CEM): < 5%
inhibition at 10 µM (HL-60(TB)): < 5%
inhibition at 10 µM (K-562): < 5%
inhibition at 10 µM (RPMI-8226): < 5%
inhibition at 10 µM (SR): < 5%
inhibition at 10 µM (SF-539): < 5%
inhibition at 10 µM (SNB-19): < 5%
inhibition at 10 µM (SF-268): < 5%
inhibition at 10 µM (SF-295): < 5%
inhibition at 10 µM (U251): < 5%
inhibition at 10 µM (SNB-75): < 5%
inhibition at 10 µM (LOX IMVI): < 5%
inhibition at 10 µM (MALME-3M): < 5%
inhibition at 10 µM (SK-MEL-28): < 5%
inhibition at 10 µM (UACC-257): < 5%
inhibition at 10 µM (UACC-62): 8.41%
inhibition at 10 µM (MDA-MB-435): < 5%
inhibition at 10 µM (SK-MEL-5): < 5%
inhibition at 10 µM (SK-MEL-2): < 5%
inhibition at 10 µM (M14): < 5%
inhibition at 10 µM (T-47D): < 5%
inhibition at 10 µM (MDA-MB-231/ATCC): < 5%
inhibition at 10 µM (MDA-MB-468): < 5%
inhibition at 10 µM (MCF-7): < 5%
inhibition at 10 µM (BT-549): < 5%
inhibition at 10 µM (HS 578T): < 5%
inhibition at 10 µM (A549/ATCC): < 5%
inhibition at 10 µM (NCI-H226): < 5%
inhibition at 10 µM (NCI-H322M): < 5%
inhibition at 10 µM (NCI-H522): 8.06%
inhibition at 10 µM (HOP-62): < 5%
inhibition at 10 µM (HOP-92): < 5%
inhibition at 10 µM (EKVX): < 5%
inhibition at 10 µM (NCI-H460): < 5%
inhibition at 10 µM (NCI-H23): < 5%
inhibition at 10 µM (COLO 205): < 5%
inhibition at 10 µM (KM12): < 5%
inhibition at 10 µM (SW-620): < 5%
inhibition at 10 µM (HCC-2998): < 5%
inhibition at 10 µM (HT29): < 5%
inhibition at 10 µM (HCT-15): < 5%
inhibition at 10 µM (HCT-116): < 5%
